Results from ChEMBL document CHEMBL1201862, “PubChem BioAssay data set” (2004).
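96-well plates; 48 h exposure; 5 concentrations. Endpoints by linear interpolation between flanking doses. Not reached: highest tested concentration assigned. GI50: concentration for 50% inhibition of growth.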 Calls of active or inactive are those of the source. Cut-off read from the data, not from the text of the source: active = GI50 up to about 1.1 µM and inactive = higher.

Experiments:
Assay in all cases: NCI tumour cell line growth inhibition, 48 h
[1] = test system: NCI-H522
[2] = test system: HOP-62
[3] = test system: A549
[4] = test system: BT-549
[5] = test system: SR
[6] = test system: UO-31
[7] = test system: Malme-3M
[8] = test system: SK-OV-3
[9] = test system: HL-60
[10] = test system: SN12C
[11] = test system: MOLT-4
[12] = test system: CAKI-1
[13] = test system: KM12
[14] = test system: LOX IMVI
[15] = test system: NCI/ADR-RES
[16] = test system: OVCAR-3
[17] = test system: PC-3
[18] = test system: NCI-H23
[19] = test system: SW-620
[20] = test system: SK-MEL-5
[21] = test system: SNB-19
[22] = test system: SK-MEL-28
[23] = test system: K562
[24] = test system: HCT-116
[25] = test system: IGROV-1
[26] = test system: T47D
[27] = test system: SNB-75
[28] = test system: DU-145
[29] = test system: NCI-H460
[30] = test system: SF-268
[31] = test system: SF-539
[32] = test system: HOP-92
[33] = test system: OVCAR-5
[34] = test system: UACC-62
[35] = test system: MCF7
[36] = test system: CCRF-CEM
[37] = test system: M14
[38] = test system: Hs-578T
[39] = test system: MDA-N
[40] = test system: OVCAR-4
[41] = test system: A498
[42] = test system: EKVX
[43] = test system: HCC 2998
[44] = test system: 786-0
[45] = test system: UACC-257
[46] = test system: COLO 205
[47] = test system: RPMI-8226
[48] = test system: MDA-MB-435
[49] = test system: HT-29
[50] = test system: OVCAR-8
[51] = test system: NCI-H226
[52] = test system: SF-295
[53] = test system: SK-MEL-2
[54] = test system: ACHN
[55] = test system: RXF 393
[56] = test system: HCT-15
[57] = test system: U-251
[58] = test system: TK-10
[59] = test system: MDA-MB-231

Cc1ccc([N+](=O)[O-])cc1S(=O)(=O)Nc1ccc(C2=NNC(c3cccs3)C2)cc1 (stereo not given)
GI50 [1]: 24.7 µM (inactive)
GI50 [2]: 24.3 µM (inactive)
GI50 [3]: 22.9 µM (inactive)
GI50 [4]: 23.2 µM (inactive)
GI50 [5]: 20 µM (inactive)
GI50 [6]: 5.32 µM (inactive)
GI50 [7]: 23.4 µM (inactive)
GI50 [8]: 20.7 µM (inactive)
GI50 [9]: 0.0627 µM (active)
GI50 [10]: 29.2 µM (inactive)
GI50 [11]: 13.7 µM (inactive)
GI50 [12]: 30.5 µM (inactive)
GI50 [13]: 16.5 µM (inactive)
GI50 [14]: 28.7 µM (inactive)
GI50 [15]: 26.5 µM (inactive)
GI50 [16]: 12.6 µM (inactive)
GI50 [17]: 33.3 µM (inactive)
GI50 [18]: 22.2 µM (inactive)
GI50 [19]: 34.1 µM (inactive)
GI50 [20]: 17.4 µM (inactive)
GI50 [21]: 28.8 µM (inactive)
GI50 [22]: 48.5 µM (inactive)
GI50 [23]: 17.4 µM (inactive)
GI50 [24]: 22.5 µM (inactive)
GI50 [25]: 58.9 µM (inactive)
GI50 [26]: 4.85 µM (inactive)
GI50 [27]: 31.3 µM (inactive)
GI50 [28]: 30.3 µM (inactive)
GI50 [29]: 25.4 µM (inactive)
GI50 [30]: 36.8 µM (inactive)
GI50 [31]: 48.1 µM (inactive)
GI50 [32]: 60 µM (inactive)
GI50 [33]: 58.9 µM (inactive)
GI50 [34]: 14.5 µM (inactive)
GI50 [35]: 13.7 µM (inactive)
GI50 [36]: 20.2 µM (inactive)
GI50 [37]: 25.5 µM (inactive)
GI50 [38]: 58.2 µM (inactive)
GI50 [39]: 34.9 µM (inactive)
GI50 [40]: 22 µM (inactive)
GI50 [41]: 20.4 µM (inactive)
GI50 [42]: 18.8 µM (inactive)
GI50 [43]: 30.8 µM (inactive)
GI50 [44]: 31.3 µM (inactive)
GI50 [45]: 26.9 µM (inactive)
GI50 [46]: 6.87 µM (inactive)
GI50 [47]: 16.6 µM (inactive)
GI50 [48]: 35.6 µM (inactive)
GI50 [49]: 29.9 µM (inactive)
GI50 [50]: 54.2 µM (inactive)
GI50 [51]: 49.7 µM (inactive)
GI50 [52]: 6.67 µM (inactive)
GI50 [53]: 33.7 µM (inactive)
GI50 [54]: 20.7 µM (inactive)
GI50 [55]: 13.6 µM (inactive)
GI50 [56]: 17 µM

COc1ccc(NC(=O)C2=C(SC)C(C#N)C(=O)N=C2N)cc1 (stereo not given)
GI50 [57]: > 100 µM (inactive)
GI50 [1]: 15.1 µM (inactive)
GI50 [2]: > 100 µM (inactive)
GI50 [58]: > 100 µM (inactive)
GI50 [3]: > 100 µM (inactive)
GI50 [4]: > 100 µM (inactive)
GI50 [5]: > 100 µM (inactive)
GI50 [6]: 72.1 µM (inactive)
GI50 [7]: 26.9 µM (inactive)
GI50 [8]: > 100 µM (inactive)
GI50 [9]: 31.2 µM (inactive)
GI50 [10]: > 100 µM (inactive)
GI50 [11]: 55.3 µM (inactive)
GI50 [12]: 46.3 µM (inactive)
GI50 [13]: 0.369 µM (active)
GI50 [14]: > 100 µM (inactive)
GI50 [16]: > 100 µM (inactive)
GI50 [17]: > 100 µM (inactive)
GI50 [18]: > 100 µM (inactive)
GI50 [19]: 67.1 µM (inactive)
GI50 [20]: > 100 µM (inactive)
GI50 [21]: > 100 µM (inactive)
GI50 [22]: > 100 µM (inactive)
GI50 [23]: 54.3 µM (inactive)
GI50 [24]: > 100 µM (inactive)
GI50 [25]: 20.3 µM (inactive)
GI50 [26]: 49.4 µM (inactive)
GI50 [28]: > 100 µM (inactive)
GI50 [29]: > 100 µM (inactive)
GI50 [30]: > 100 µM (inactive)
GI50 [31]: > 100 µM (inactive)
GI50 [59]: > 100 µM (inactive)
GI50 [32]: 14 µM (inactive)
GI50 [33]: > 100 µM (inactive)
GI50 [34]: > 100 µM (inactive)
GI50 [35]: > 100 µM (inactive)
GI50 [36]: 25.7 µM (inactive)
GI50 [37]: > 100 µM (inactive)
GI50 [38]: 89.1 µM (inactive)
GI50 [39]: > 100 µM (inactive)
GI50 [40]: > 100 µM (inactive)
GI50 [41]: > 100 µM (inactive)
GI50 [42]: > 100 µM (inactive)
GI50 [43]: > 100 µM (inactive)
GI50 [44]: 65.8 µM (inactive)
GI50 [45]: > 100 µM (inactive)
GI50 [46]: 55.7 µM (inactive)
GI50 [47]: > 100 µM (inactive)
GI50 [48]: > 100 µM (inactive)
GI50 [49]: > 100 µM (inactive)
GI50 [51]: > 100 µM (inactive)
GI50 [52]: > 100 µM (inactive)
GI50 [53]: > 100 µM (inactive)
GI50 [54]: > 100 µM (inactive)
GI50 [55]: > 100 µM (inactive)
GI50 [56]: > 100 µM

O=C1c2ccccc2C(=O)c2c(NC(=O)C3CC3)ccc(NC(=O)C3CC3)c21
GI50 [57]: 91.2 µM (inactive)
GI50 [1]: 65.8 µM (inactive)
GI50 [2]: > 100 µM (inactive)
GI50 [58]: > 100 µM (inactive)
GI50 [3]: > 100 µM (inactive)
GI50 [4]: > 100 µM (inactive)
GI50 [5]: > 100 µM (inactive)
GI50 [6]: > 100 µM (inactive)
GI50 [7]: 61.2 µM (inactive)
GI50 [9]: 95.7 µM (inactive)
GI50 [10]: > 100 µM (inactive)
GI50 [11]: > 100 µM (inactive)
GI50 [13]: > 100 µM (inactive)
GI50 [14]: > 100 µM (inactive)
GI50 [15]: > 100 µM (inactive)
GI50 [16]: > 100 µM (inactive)
GI50 [17]: > 100 µM (inactive)
GI50 [18]: > 100 µM (inactive)
GI50 [19]: > 100 µM (inactive)
GI50 [20]: > 100 µM (inactive)
GI50 [21]: > 100 µM (inactive)
GI50 [22]: > 100 µM (inactive)
GI50 [23]: > 100 µM (inactive)
GI50 [24]: > 100 µM (inactive)
GI50 [25]: > 100 µM (inactive)
GI50 [26]: > 100 µM (inactive)
GI50 [29]: > 100 µM (inactive)
GI50 [31]: > 100 µM (inactive)
GI50 [59]: > 100 µM (inactive)
GI50 [33]: > 100 µM (inactive)
GI50 [34]: 26.9 µM (inactive)
GI50 [35]: 83.2 µM (inactive)
GI50 [38]: > 100 µM (inactive)
GI50 [39]: > 100 µM (inactive)
GI50 [41]: > 100 µM (inactive)
GI50 [42]: > 100 µM (inactive)
GI50 [43]: > 100 µM (inactive)
GI50 [44]: 61.7 µM (inactive)
GI50 [45]: > 100 µM (inactive)
GI50 [46]: > 100 µM (inactive)
GI50 [47]: > 100 µM (inactive)
GI50 [48]: > 100 µM (inactive)
GI50 [49]: > 100 µM (inactive)
GI50 [50]: > 100 µM (inactive)
GI50 [52]: 33.4 µM (inactive)
GI50 [53]: > 100 µM (inactive)
GI50 [54]: 58.2 µM (inactive)
GI50 [56]: > 100 µM
